# According to patent US20240287007A1, “N-(1,3,4-OXADIAZOL-2-YL)PHENYLCARBOXAMIDES AS HERBICIDES” (BAYER AKTIENGESELLSCHAFT, priority 2021, published 2024):
# How the values were obtained:
# Assay type in all cases: in vivo
# [1] = system: ABUTH (Abutylon threophrasti); assay: Pre-emergence herbicidal effect against ABUTH; details: scored visually after 3 weeks
# From the text: (§1) Seeds of monocotyledonous and dicotyledonous weed plants and crop plants are laid out in sandy loam soil in wood-fiber pots and covered with soil. The compounds of the invention, formulated in the form of wettable powders (WP) or as emulsion concentrates (EC), are then applied to the surface of the covering soil as aqueous suspension or emulsion at a water application rate equating to 600 to 800 l/ha with addition of 0.2% wetting agent. After the treatment, the pots are placed in a greenhouse and kept under good growth conditions for the trial plants. The damage to the test plants is scored visually after a test period of 3 weeks by comparison with untreated controls (herbicidal activity in percent (%): 100% activity=the plants have died, 0% activity=like control plants).
# [2] = system: ECHCG (Echinochloa crus-galli); assay: Pre-emergence herbicidal effect against ECHCG; details: scored visually after 3 weeks
# From the text: as §1
# KCHSC (Kochia scoparia) [3] = assay: Post-emergence herbicidal action against KCHSC; details: visual assessment after about 3 weeks
# Protocol: (§2) Seeds of monocotyledonous and dicotyledonous weed and crop plants are laid out in sandy loam soil in wood-fiber pots, covered with soil and cultivated in a greenhouse under good growth conditions. 2 to 3 weeks after sowing, the trial plants are treated at the one-leaf stage. The compounds of the invention, formulated in the form of wettable powders (WP) or as emulsion concentrates (EC), are then sprayed onto the green parts of the plants as aqueous suspension or emulsion at a water application rate equating to 600 to 800 l/ha with addition of 0.2% wetting agent. After the test plants have been left to stand in the greenhouse under optimal growth conditions for about 3 weeks, the action of the preparations is assessed visually in comparison to untreated controls (herbicidal action in percent (%): 100% activity=the plants have died, 0% activity=like control plants).
# [4] = system: POLCO (Polygonum convolvulus); assay: Post-emergence herbicidal action against POLCO; details: 80 g/ha, visual assessment after about 3 weeks
# Protocol: as §2
# [5] = system: POLCO (Polygonum convolvulus); assay: Pre-emergence herbicidal effect against POLCO; details: 80 g/ha, scored visually after 3 weeks
# From the text: as §1
# KCHSC (Kochia scoparia) [6] = assay: Pre-emergence herbicidal effect against KCHSC; details: scored visually after 3 weeks
# From the text: as §1
# [7] = system: PHBPU (Pharbitis purpurea); assay: Pre-emergence herbicidal effect against PHBPU; details: 80 g/ha, scored visually after 3 weeks
# From the text: as §1
# [8] = system: ABUTH (Abutylon threophrasti); assay: Post-emergence herbicidal action against ABUTH; details: visual assessment after about 3 weeks
# Protocol: as §2
# VERPE (Veronica persica) [9] = assay: Pre-emergence herbicidal effect against VERPE; details: scored visually after 3 weeks
# From the text: as §1
# AVEFA (Avena fatua) [10] = assay: Post-emergence herbicidal action against AVEFA; details: visual assessment after about 3 weeks
# Protocol: as §2
# VIOTR (Viola tricolor) [11] = assay: Post-emergence herbicidal action against VIOTR; details: visual assessment after about 3 weeks
# Protocol: as §2
# [12] = system: MATIN (Matricaria inodora); assay: Pre-emergence herbicidal effect against MATIN; details: scored visually after 3 weeks
# From the text: as §1
# [13] = system: ALOMY (Alopecurus myosuroides); assay: Pre-emergence herbicidal effect against ALOMY; details: 80 g/ha, scored visually after 3 weeks
# From the text: as §1
# AVEFA (Avena fatua) [14] = assay: Pre-emergence herbicidal effect against AVEFA; details: 80 g/ha, scored visually after 3 weeks
# From the text: as §1
# [15] = system: AMARE (Amaranthus retroflexus); assay: Pre-emergence herbicidal effect against AMARE; details: scored visually after 3 weeks
# From the text: as §1
# SETVI (Setaria viridis) [16] = assay: Pre-emergence herbicidal effect against SETVI; details: scored visually after 3 weeks
# From the text: as §1
# VERPE (Veronica persica) [17] = assay: Post-emergence herbicidal action against VERPE; details: visual assessment after about 3 weeks
# Protocol: as §2
# [18] = system: AMARE (Amaranthus retroflexus); assay: Post-emergence herbicidal action against AMARE; details: visual assessment after about 3 weeks
# Protocol: as §2
# [19] = system: PHBPU (Pharbitis purpurea); assay: Post-emergence herbicidal action against PHBPU; details: visual assessment after about 3 weeks
# Protocol: as §2
# [20] = system: MATIN (Matricaria inodora); assay: Post-emergence herbicidal action against MATIN; details: visual assessment after about 3 weeks
# Protocol: as §2
# LOLRI (Lolium rigidum) [21] = assay: Post-emergence herbicidal action against LOLRI; details: visual assessment after about 3 weeks
# Protocol: as §2
# [22] = system: DIGSA (Digitaria sanguinalis); assay: Pre-emergence herbicidal effect against DIGSA; details: scored visually after 3 weeks
# From the text: as §1
# VIOTR (Viola tricolor) [23] = assay: Pre-emergence herbicidal effect against VIOTR; details: scored visually after 3 weeks
# From the text: as §1
# [24] = system: ECHCG (Echinochloa crus-galli); assay: Post-emergence herbicidal action against ECHCG; details: visual assessment after about 3 weeks
# Protocol: as §2
# SETVI (Setaria viridis) [25] = assay: Post-emergence herbicidal action against SETVI; details: visual assessment after about 3 weeks
# Protocol: as §2
# [26] = system: DIGSA (Digitaria sanguinalis); assay: Post-emergence herbicidal action against DIGSA; details: visual assessment after about 3 weeks
# Protocol: as §2
# LOLRI (Lolium rigidum) [27] = assay: Pre-emergence herbicidal effect against LOLRI; details: 80 g/ha, scored visually after 3 weeks
# From the text: as §1
smiles,measurement,setting,value
C[S+]([O-])c1c(OC(F)F)ccc(C(=O)Nc2nnco2)c1Cl (racemic) [Example 1-22],Pre-emergence effect at 20 g/ha against ABUTH in %,[1],80%
same,Pre-emergence effect at 80 g/ha against ABUTH in %,[1],100%
same,Pre-emergence effect at 20 g/ha against ECHCG in %,[2],90%
same,Pre-emergence effect at 80 g/ha against ECHCG in %,[2],100%
same,Post-emergence effect at 20 g/ha against KCHSC in %,KCHSC (Kochia scoparia) [3],100%
same,Post-emergence effect at 80 g/ha against KCHSC in %,KCHSC (Kochia scoparia) [3],100%
same,Post-emergence effect at 80 g/ha against POLCO in %,[4],90%
same,Pre-emergence effect at 80 g/ha against POLCO in %,[5],90%
same,Pre-emergence effect at 20 g/ha against KCHSC in %,KCHSC (Kochia scoparia) [6],100%
same,Pre-emergence effect at 80 g/ha against KCHSC in %,KCHSC (Kochia scoparia) [6],100%
same,Pre-emergence effect at 80 g/ha against PHBPU in %,[7],80%
same,Post-emergence effect at 20 g/ha against ABUTH in %,[8],100%
same,Post-emergence effect at 80 g/ha against ABUTH in %,[8],100%
same,Pre-emergence effect at 20 g/ha against VERPE in %,VERPE (Veronica persica) [9],80%
same,Pre-emergence effect at 80 g/ha against VERPE in %,VERPE (Veronica persica) [9],90%
same,Post-emergence effect at 20 g/ha against A VEFA in %,AVEFA (Avena fatua) [10]; 20 g/ha,90%
same,Post-emergence effect at 80 g/ha against AVEFA in %,AVEFA (Avena fatua) [10],100%
same,Post-emergence effect at 20 g/ha against VIOTR in %,VIOTR (Viola tricolor) [11],100%
same,Post-emergence effect at 80 g/ha against VIOTR in %,VIOTR (Viola tricolor) [11],100%
same,Pre-emergence effect at 20 g/ha against MATIN in %,[12],100%
same,Pre-emergence effect at 80 g/ha against MATIN in %,[12],100%
same,Pre-emergence effect at 80 g/ha against ALOMY in %,[13],80%
same,Pre-emergence effect at 80 g/ha against A VEFA in %,AVEFA (Avena fatua) [14],80%
same,Pre-emergence effect at 20 g/ha against AMARE in %,[15],100%
same,Pre-emergence effect at 80 g/ha against AMARE in %,[15],100%
same,Pre-emergence effect at 20 g/ha against SETVI in %,SETVI (Setaria viridis) [16],90%
same,Pre-emergence effect at 80 g/ha against SETVI in %,SETVI (Setaria viridis) [16],100%
same,Post-emergence effect at 20 g/ha against VERPE in %,VERPE (Veronica persica) [17],90%
same,Post-emergence effect at 80 g/ha against VERPE in %,VERPE (Veronica persica) [17],100%
same,Post-emergence effect at 20 g/ha against AMARE in %,[18],100%
same,Post-emergence effect at 80 g/ha against AMARE in %,[18],100%
same,Post-emergence effect at 80 g/ha against PHBPU in %,[19],100%
same,Post-emergence effect at 20 g/ha against MATIN in %,[20],100%
same,Post-emergence effect at 80 g/ha against MATIN in %,[20],100%
same,Post-emergence effect at 80 g/ha against LOLRI in %,LOLRI (Lolium rigidum) [21],90%
same,Pre-emergence effect at 20 g/ha against DIGSA in %,[22],100%
same,Pre-emergence effect at 80 g/ha against DIGSA in %,[22],100%
same,Pre-emergence effect at 20 g/ha against VIOTR in %,VIOTR (Viola tricolor) [23],100%
same,Pre-emergence effect at 80 g/ha against VIOTR in %,VIOTR (Viola tricolor) [23],100%
same,Post-emergence effect at 20 g/ha against ECHCG in %,[24],100%
same,Post-emergence effect at 80 g/ha against ECHCG in %,[24],100%
same,Post-emergence effect at 20 g/ha against SETVI in %,SETVI (Setaria viridis) [25],100%
same,Post-emergence effect at 80 g/ha against SETVI in %,SETVI (Setaria viridis) [25],100%
same,Post-emergence effect at 20 g/ha against DIGSA in %,[26],100%
same,Post-emergence effect at 80 g/ha against DIGSA in %,[26],100%
"CS(=O)(=O)c1c(OC(F)F)ccc(C(=O)Nc2nnco2)c1Cl [Example 1-25, 2-chloro-4-(difluoromethoxy)-3-(methylsulfonyl)-N-(1,3,4-oxadiazol-2-yl)benzamide]",Pre-emergence effect at 20 g/ha against ABUTH in %,[1],100%
same,Pre-emergence effect at 80 g/ha against ABUTH in %,[1],100%
same,Pre-emergence effect at 20 g/ha against ECHCG in %,[2],100%
same,Pre-emergence effect at 80 g/ha against ECHCG in %,[2],100%
same,Post-emergence effect at 20 g/ha against KCHSC in %,KCHSC (Kochia scoparia) [3],100%
same,Post-emergence effect at 80 g/ha against KCHSC in %,KCHSC (Kochia scoparia) [3],100%
same,Pre-emergence effect at 20 g/ha against KCHSC in %,KCHSC (Kochia scoparia) [6],100%
same,Pre-emergence effect at 80 g/ha against KCHSC in %,KCHSC (Kochia scoparia) [6],100%
same,Pre-emergence effect at 80 g/ha against PHBPU in %,[7],90%
same,Post-emergence effect at 20 g/ha against ABUTH in %,[8],100%
same,Post-emergence effect at 80 g/ha against ABUTH in %,[8],100%
same,Pre-emergence effect at 20 g/ha against VERPE in %,VERPE (Veronica persica) [9],90%
same,Pre-emergence effect at 80 g/ha against VERPE in %,VERPE (Veronica persica) [9],100%
same,Post-emergence effect at 80 g/ha against AVEFA in %,AVEFA (Avena fatua) [10],100%
same,Post-emergence effect at 20 g/ha against VIOTR in %,VIOTR (Viola tricolor) [11],100%
same,Post-emergence effect at 80 g/ha against VIOTR in %,VIOTR (Viola tricolor) [11],100%
same,Pre-emergence effect at 20 g/ha against MATIN in %,[12],100%
same,Pre-emergence effect at 80 g/ha against MATIN in %,[12],100%
same,Pre-emergence effect at 80 g/ha against A VEFA in %,AVEFA (Avena fatua) [14],90%
same,Pre-emergence effect at 20 g/ha against AMARE in %,[15],100%
same,Pre-emergence effect at 80 g/ha against AMARE in %,[15],100%
same,Pre-emergence effect at 20 g/ha against SETVI in %,SETVI (Setaria viridis) [16],100%
same,Pre-emergence effect at 80 g/ha against SETVI in %,SETVI (Setaria viridis) [16],100%
same,Post-emergence effect at 20 g/ha against VERPE in %,VERPE (Veronica persica) [17],90%
same,Post-emergence effect at 80 g/ha against VERPE in %,VERPE (Veronica persica) [17],100%
same,Post-emergence effect at 20 g/ha against AMARE in %,[18],100%
same,Post-emergence effect at 80 g/ha against AMARE in %,[18],100%
same,Post-emergence effect at 20 g/ha against PHBPU in %,[19]; 20 g/ha,100%
same,Post-emergence effect at 80 g/ha against PHBPU in %,[19],100%
same,Post-emergence effect at 20 g/ha against MATIN in %,[20],100%
same,Post-emergence effect at 80 g/ha against MATIN in %,[20],100%
same,Pre-emergence effect at 80 g/ha against LOLRI in %,LOLRI (Lolium rigidum) [27],90%
same,Pre-emergence effect at 20 g/ha against DIGSA in %,[22],100%
same,Pre-emergence effect at 80 g/ha against DIGSA in %,[22],100%
same,Pre-emergence effect at 20 g/ha against VIOTR in %,VIOTR (Viola tricolor) [23],100%
same,Pre-emergence effect at 80 g/ha against VIOTR in %,VIOTR (Viola tricolor) [23],100%
same,Post-emergence effect at 20 g/ha against ECHCG in %,[24],80%
same,Post-emergence effect at 80 g/ha against ECHCG in %,[24],100%
same,Post-emergence effect at 20 g/ha against SETVI in %,SETVI (Setaria viridis) [25],100%
same,Post-emergence effect at 80 g/ha against SETVI in %,SETVI (Setaria viridis) [25],100%
same,Post-emergence effect at 20 g/ha against DIGSA in %,[26],100%
same,Post-emergence effect at 80 g/ha against DIGSA in %,[26],100%
